Measured values as given in patent US20250032454A1, “KDM1A INHIBITORS FOR THE TREATMENT OF DISEASE” (Imago Biosciences, Inc., priority 2021, published 2025).
Like-named read-outs stand apart in the source and are kept apart here.

Experiments:
[1] = tested on: human hematopoietic stem cells (CD34+); test: HbF induction and red cell maturation in CD34+ hematopoietic stem cells differentiated to red cells over 18 days (HbF by HPLC); assay type: cell-based; conditions: for concentration that inhibits/arrests red cell maturation: co-culture from Day 7, harvest Day 18; for concentration that induces HbF: co-culture from Day 7, harvest Day 18, total HbF by HPLC
Protocol: In an in vitro assay system, human hematopoietic stem cells (CD34^+) from a single donor are cultured to differentiate into red cells over the course of 18 days using standard culture methods with eythrogenic growth factors. Three test articles were co-cultured beginning on Day 7: the compound described in Example 11SS, a reversible inhibitor of LSD1; 4-(2-(4-aminopiperidin-1-yl)-5-(4-methoxyphenyl)-1-methyl-6-oxo-1,6-dihydropyrimidin-4-yl)-2-fluorobenzonitrile, a potent reversible inhibitor of LSD1; and 2-(((trans)-2-(4-(benzyloxy)phenyl)cyclopropyl)amino)-1-(4-methylpiperazin-1-yl) ethanone dihydrochloride (RN-1), a commercially available potent […] inhibitor of LSD1. Cells were harvested at Day 18 and total HbF was assayed by HPLC, e.g., using a C20 reverse phase column. 4-(2-(4-aminopiperidin-1-yl)-5-(4-methoxyphenyl)-1-methyl-6-oxo-1,6-dihydropyrimidin-4-yl)-2-fluorobenzonitrile and RN-1 both induce HbF at 3 nM but inhibit red cell maturation at 10 nM.

[2] = tested on: MV4;11 cells; test: Cell Titer-Glo cell growth inhibition in MV4;11 cell line (Day 5 / Day 10); assay type: cell-based; conditions: Homo sapiens
Method in brief: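 Cells seeded at 3750/well and treated with a 10-point, 4-fold dose curve from 0 to 50 µM; ATP-based luminescence viability read at Day 5. A portion is reseeded into fresh compound and media for 5 more days, read at Day 10; IC50 derived from luminescence.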

[3] = molecular target: LSD1 (Homo sapiens, UniProt O60341); test: LSD1 fluorescence coupling enzyme assay (HRP/Amplex Red, H3(1-21)K4me2 peptide), 10-dose IC50; assay type: biochemical; conditions: 10 μM histone H3(1-21)K4me2 peptide substrate, 3-fold serial dilution from 100 μM
Method in brief: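 Fluorescence coupled assay: LSD1 demethylation of 10 μM H3(1-21)K4me2 peptide produces FAD-dependent H2O2, detected via HRP/Amplex Red as resorufin (Ex/Em 535/590 nm). IC50 from 10 doses, 3-fold serial dilution from 100 μM, in duplicate.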

[4] = MV4-11, 120 h, Day 5, read-out: Cell Titer-Glo IC50 (5 d)
[5] = MV4-11, 240 h, Day 10, read-out: Cell Titer-Glo IC50 (10 d)

Row | IC50 [2, 4] | IC50 [2, 5] | IC50 [3] | SMILES | concentration that inhibits/arrests red cell maturation [1] | concentration that induces HbF [1]
1 |  |  |  | COc1ccc(-c2c(-c3ccc(C#N)c(F)c3)nc(N3CCC(N)CC3)n(C)c2=O)cc1 [4-(2-(4-aminopiperidin-1-yl)-5-(4-methoxyphenyl)-1-methyl-6-oxo-1,6-dihydropyrimidin-4-yl)-2-fluorobenzonitrile] | 10 nM | 3 nM
2 |  |  |  | CN1CCN(C(=O)CN[C@@H]2C[C@H]2c2ccc(OCc3ccccc3)cc2)CC1.Cl.Cl (relative stereo) [RN-1, 2-(((trans)-2-(4-(benzyloxy)phenyl)cyclopropyl)amino)-1-(4-methylpiperazin-1-yl) ethanone dihydrochloride, reference compound] | 10 nM | 3 nM
3 | 500 to 1000 nM | < 500 nM | < 500 nM | COc1ccc(-n2nc(NC[C@H]3CCC[C@H](N)C3)cc2-c2ccc(C#N)c(F)c2)cc1 [Example 11SS, 4-(3-((((1S,3S)-3-aminocyclohexyl)methyl)amino)-1-(4-methoxyphenyl)-1H-pyrazol-5-yl)-2-fluorobenzonitrile] | 300 nM | a higher concentration
4 | 1000 to 10000 nM | < 500 nM | 1000 to 10000 nM | COc1ccc(-n2nc(NC[C@H]3C[C@H](N)C3)cc2-c2ccc(C#N)c(F)c2)cc1 [Example 42, 4-(3-((((1r,3r)-3-aminocyclobutyl)methyl)amino)-1-(4-methoxyphenyl)-1H-pyrazol-5-yl)-2-fluorobenzonitrile] |  | 
